The target of assay [1] is T1, Short transient receptor potential channel 5 (Homo sapiens, UniProt Q9UL62).
T1 sequence (Q9UL62 whole entry): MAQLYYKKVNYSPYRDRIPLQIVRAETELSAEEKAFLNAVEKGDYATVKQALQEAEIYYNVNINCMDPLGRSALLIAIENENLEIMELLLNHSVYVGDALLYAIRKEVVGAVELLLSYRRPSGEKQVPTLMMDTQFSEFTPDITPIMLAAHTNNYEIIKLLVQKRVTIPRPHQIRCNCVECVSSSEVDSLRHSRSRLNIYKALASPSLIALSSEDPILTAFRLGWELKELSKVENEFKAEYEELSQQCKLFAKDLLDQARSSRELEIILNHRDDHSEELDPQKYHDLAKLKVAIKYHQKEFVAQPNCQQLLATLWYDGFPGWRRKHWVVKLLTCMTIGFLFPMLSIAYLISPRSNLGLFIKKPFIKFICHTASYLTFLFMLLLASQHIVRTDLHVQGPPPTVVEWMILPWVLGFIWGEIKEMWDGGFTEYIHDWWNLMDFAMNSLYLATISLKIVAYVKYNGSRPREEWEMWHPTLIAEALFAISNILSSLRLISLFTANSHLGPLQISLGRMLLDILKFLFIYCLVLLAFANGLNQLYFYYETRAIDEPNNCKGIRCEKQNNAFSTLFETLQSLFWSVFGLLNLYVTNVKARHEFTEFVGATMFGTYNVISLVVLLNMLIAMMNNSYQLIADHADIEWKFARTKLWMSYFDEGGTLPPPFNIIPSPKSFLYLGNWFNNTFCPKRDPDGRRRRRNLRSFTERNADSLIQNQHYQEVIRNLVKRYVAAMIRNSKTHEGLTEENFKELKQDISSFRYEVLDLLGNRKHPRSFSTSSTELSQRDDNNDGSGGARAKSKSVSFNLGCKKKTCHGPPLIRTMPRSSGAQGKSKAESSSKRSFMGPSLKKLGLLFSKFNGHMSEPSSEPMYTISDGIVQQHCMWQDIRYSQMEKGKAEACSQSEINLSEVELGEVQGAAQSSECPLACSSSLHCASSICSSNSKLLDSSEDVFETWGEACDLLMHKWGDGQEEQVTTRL
Description: Inhibition of TRPC5 (unknown origin) transfected in HEK293/TREx cells assessed as blocking of inward/outward currents after 20 to 48 hrs in presence of LaCl3 by patch clamp assay. It counts as cell-based. (In general: The patch-clamp technique gives a direct electrical read-out from membranes.)

The target in assay [2] is T1, Short transient receptor potential channel 5. Briefly: Inhibition of TRPC5 (unknown origin) transfected in HEK293/TREx cells assessed as reduction of rise in intracellular Ca2+ concentration after 60 to 80 mins by Fluo4 cell-based fluorescence assay.

Drawing on ChEMBL document CHEMBL4425118, “Potential Treatment for Neuropsychiatry Disorders with TRPC5 Modulators” (ACS Med Chem Lett, 2016), this text covers IC50 for six compounds.

Each structure is given as a SMILES string. Some results are limits rather than exact numbers.

As usually defined, the IC50 is the concentration that inhibits the measured activity by half. In the case of `COc1ccc2c(c1Cc1ccccc1)c(=O)n(CCCO)c(=O)n2C`, in assay [1], the IC50 turned out to be 23.3 nM. In the case of `CC(C)Oc1ccc2c(c1Cc1ccc(F)cc1)c(=O)n(CCCO)c(=O)n2C`, the IC50 in assay [1] came to 9 nM; in assay [2], 2.64 nM. In the case of `COc1ccc2c(c1Cc1ccc(F)cc1)c(=O)n(CCCO)c(=O)n2C`, the results for the IC50 in assay [1] and in assay [2] were 8.37 nM and greater than 100 nM, respectively. Regarding `CCCCOc1ccc2c(c1Cc1ccc(F)cc1)c(=O)n(CCCO)c(=O)n2C`, the IC50 in assay [1] and in assay [2] was less than 1 nM throughout. As to `Cn1c(=O)n(CCCO)c(=O)c2c(Cc3ccccc3)c(-c3cccc(OC(F)(F)F)c3)ccc21`, in assay [1], the IC50 is 5.3 nM. As for `Cn1c(=O)n(CCCO)c(=O)c2c(Cc3ccccc3)c(Oc3cccc(OC(F)(F)F)c3)ccc21`, the IC50 was less than 1 nM in assay [1] and 2.69 nM in assay [2].
